pIC50: −log10 of the molar value.

For this experiment, the system named is KRAS G12C mutant MIA PaCa-2 cells. In words: Cell proliferation inhibition experiment, 3D spheroid, CellTiter-Glo, MIA PaCa-2. Type of experiment: cell-based, human. As to conditions: Homo sapiens, MIA PaCa-2, 120 h, 3D cell model in 384-well spheroid plate, 5 days, CellTiter-Glo; read-out: MIA-PaCa2 IC50. An outline of the steps: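 Luminescent ATP read-out (CellTiter-Glo) after 5-day compound treatment of spheroids formed overnight from 200 MIA PaCa-2 cells/well; compounds in 3.16-fold series, 0.1% DMSO final. IC50 derived by four-parameter fit of percent inhibition, normalized to DMSO control and medium blank.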
(In general: ATP-based viability assays read luminescence as a measure of living cells.)
For orientation: pIC50 means the IC50 on a negative log10 scale, so that one unit is a factor of ten. As for `C=CC(=O)N1CCN2C(=O)c3c(Nc4c(C(C)C)ncnc4C(C)C)nc(-c4c(O)cccc4F)c(Cl)c3OC[C@H]2C1` [Z15, (6aR)-8-acryloyl-4-chloro-1-((4,6-diisopropylpyrimidin-5-yl)amino)-3-(2-fluoro-6-hydroxyphenyl)-6,6a,7,8,9,10-hexahydro-12H-pyrazino[2,1-c]pyrido[3,4-f][1,4]oxazepin-12-one], the pIC50 was 7.82. The figure for `C=CC(=O)N1CCN2C(=O)c3c(N(C)c4c(C(C)C)ncnc4C(C)C)nc(-c4c(O)cccc4F)c(Cl)c3OC[C@H]2C1` [Z20, (6aR)-8-acryloyl-4-chloro-1-((4,6-diisopropylpyrimidin-5-yl)(methyl)amino)-3-(2-fluoro-6-hydroxyphenyl)-6,6a,7,8,9,10-hexahydro-12H-pyrazino[2,1-c]pyrido[3,4-f][1,4]oxazepin-12-one] is 8.10; for `C=CC(=O)N1CCN2C(=O)c3c(N4CCC(C)(C)C4)nc(-c4c(O)cccc4F)c(Cl)c3OC[C@H]2C1` [Z21, (6aR)-8-acryloyl-4-chloro-1-(3,3-dimethylpyrrolidin-1-yl)-3-(2-fluoro-6-hydroxyphenyl)-6,6a,7,8,9,10-hexahydro-12H-pyrazino[2,1-c]pyrido[3,4-f][1,4]oxazepin-12-one] it is 7.19.

These data come from patent US20230203060A1 (GENFLEET THERAPEUTICS (SHANGHAI) INC., priority 2020, published 2023).
